Results from ChEMBL document CHEMBL1201862, “PubChem BioAssay data set” (2004).
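Tested at 5 concentrations; 48 h exposure; 96-well plates; endpoints linearly interpolated, else capped at highest concentration. GI50 is the concentration that inhibits growth by half.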 Activity calls are given as the source filed them. No stated cut-off is given here; in the data, active = GI50 up to about 1.1 µM and inactive = higher.

How the values were obtained:
Assay in all cases: NCI-60 cell line screen, 48 h
OVCAR-4 = test system: OVCAR-4
SNB-19 = test system: SNB-19
HOP-62 = test system: HOP-62
HCT-15 = test system: HCT-15
TK-10 = test system: TK-10
OVCAR-8 = test system: OVCAR-8
SK-MEL-2 = test system: SK-MEL-2
SW-620 = test system: SW-620
UACC-62 = test system: UACC-62
K562 = test system: K562
KM12 = test system: KM12
HCT-116 = test system: HCT-116
A549 = test system: A549
CCRF-CEM = test system: CCRF-CEM
SK-MEL-5 = test system: SK-MEL-5
NCI-H460 = test system: NCI-H460
SF-268 = test system: SF-268
IGROV-1 = test system: IGROV-1

Row | Compound | GI50 (OVCAR-4) | GI50 (SNB-19) | GI50 (HOP-62) | GI50 (HCT-15) | GI50 (TK-10) | GI50 (OVCAR-8) | GI50 (SK-MEL-2) | GI50 (SW-620) | GI50 (UACC-62) | GI50 (K562) | GI50 (KM12) | GI50 (HCT-116) | GI50 (A549) | GI50 (CCRF-CEM) | GI50 (SK-MEL-5) | GI50 (NCI-H460) | GI50 (SF-268) | GI50 (IGROV-1)
1 | Cc1cc(O)nc(NN2C(Cl)C(=O)C2c2cccc([N+](=O)[O-])c2)n1 (stereo not drawn) | 23.6 µM (inactive) | 44 µM (inactive) | 31.4 µM (inactive) | 15.1 µM | 38.3 µM (inactive) | 34.8 µM (inactive) | 19 µM (inactive) | 35.1 µM (inactive) | 19.4 µM (inactive) | 18.3 µM (inactive) | 25.9 µM (inactive) | 19.7 µM (inactive) | 76 µM (inactive) | 3.52 µM (inactive) | 17.5 µM (inactive) | 26.3 µM (inactive) | 35.2 µM (inactive) | > 10 µM (inactive)
2 | CC(=O)c1cccc(NC(=O)C(=O)C(C(=O)c2ccccc2F)C2OC(=O)c3ccccc32)c1 (stereo not drawn) | 32.5 µM (inactive) | 32.1 µM (inactive) | 61.7 µM (inactive) | 30.2 µM | > 100 µM (inactive) | 31.8 µM (inactive) | 29.8 µM (inactive) | 99.5 µM (inactive) | 34.6 µM (inactive) | 32.1 µM (inactive) | 39.7 µM (inactive) | 33.3 µM (inactive) | 54.8 µM (inactive) | 14.8 µM (inactive) | 64 µM (inactive) | 30.9 µM (inactive) | 34.3 µM (inactive) | 74.8 µM (inactive)
3 | CN=S(=O)(C[C@]1(O)CC2OC1C1OC(C)(C)OC21)c1ccccc1 (stereo partly drawn) | > 100 µM (inactive) | > 100 µM (inactive) | > 100 µM (inactive) | > 100 µM | > 100 µM (inactive) | > 100 µM (inactive) | > 100 µM (inactive) | > 100 µM (inactive) | > 100 µM (inactive) | > 100 µM (inactive) | > 100 µM (inactive) | > 100 µM (inactive) | > 100 µM (inactive) | > 100 µM (inactive) | > 100 µM (inactive) | > 100 µM (inactive) | > 100 µM (inactive) | > 100 µM (inactive)
4 | COc1ccc(NC(=O)C(=O)NO)c(OC)c1 | 17.7 µM (inactive) | 14.9 µM (inactive) | 19.9 µM (inactive) | 16.3 µM | 22.4 µM (inactive) | 15 µM (inactive) | 16.1 µM (inactive) | 18.7 µM (inactive) | 14.8 µM (inactive) | 19.8 µM (inactive) | 19.8 µM (inactive) | 18.5 µM (inactive) | 19.6 µM (inactive) | 23 µM (inactive) | 18.5 µM (inactive) | 16 µM (inactive) | 16.9 µM (inactive) | 15.4 µM (inactive)
5 | O=C1/C(=C/c2ccccc2)CN(C(=O)C(Cl)(Cl)Cl)C/C1=C\c1ccccc1 | 1.73 µM (inactive) | 2.82 µM (inactive) | > 10 µM (inactive) | 1.68 µM | 2.57 µM (inactive) | 1.73 µM (inactive) | 2.91 µM (inactive) | 0.546 µM (active) | 1.68 µM (inactive) | 0.43 µM (active) | 1.29 µM (inactive) | 0.356 µM (active) | 13.9 µM (inactive) | 0.551 µM (active) | 1.15 µM (inactive) | 2.08 µM (inactive) | 3.33 µM (inactive) | 2.06 µM (inactive)
6 | O=C(c1cccs1)N(C(=S)N1CCN(c2ccccc2)CC1)c1ccccc1 | > 100 µM (inactive) | > 100 µM (inactive) | > 100 µM (inactive) | > 100 µM | > 100 µM (inactive) | > 100 µM (inactive) | > 100 µM (inactive) | > 100 µM (inactive) | > 100 µM (inactive) | > 100 µM (inactive) | > 100 µM (inactive) | > 100 µM (inactive) | > 100 µM (inactive) | > 100 µM (inactive) | > 100 µM (inactive) | > 100 µM (inactive) | > 100 µM (inactive) | > 100 µM (inactive)
